Legend:
HCT116-WT cells = experiment: Inhibitory activity against cell proliferation (CellTiter Glo, 6 days), HCT116-WT; type: cell-based; settings: 144 h, HCT116-WT cells, 6 days, CellTiter Glo; read-out: HCT116-WT IC50
In short: (§1)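 Viability is measured by CellTiter Glo luminescence on day 7, following a 6-day treatment with compounds serially diluted 4-fold over 8 points from 10000 nM. Both lines are plated at 250 cells per well and cultured overnight beforehand.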

HCT116 MTAP KO cells = experiment: Inhibitory activity against cell proliferation (CellTiter Glo, 6 days), HCT116 MTAP KO; type: cell-based; settings: for IC50: Homo sapiens, HCT-116, 144 h, HCT116 MTAP KO cells, 6 days, CellTiter Glo, read-out: HCT116 MTAP KO IC50; for Selectivity HCT 116-WT/ HCT116 MTAP KO: ratio of IC50 HCT116-WT / HCT116 MTAP KO
In short: as §1

PRMT5-MTA = PRMT5-MTA (Homo sapiens, UniProt O14744); experiment: Enzymatic inhibitory activity against PRMT5-MTA (AlphaScreen); type: biochemical; settings: read-out: IC50
Chain of PRMT5-MTA (O14744 whole entry): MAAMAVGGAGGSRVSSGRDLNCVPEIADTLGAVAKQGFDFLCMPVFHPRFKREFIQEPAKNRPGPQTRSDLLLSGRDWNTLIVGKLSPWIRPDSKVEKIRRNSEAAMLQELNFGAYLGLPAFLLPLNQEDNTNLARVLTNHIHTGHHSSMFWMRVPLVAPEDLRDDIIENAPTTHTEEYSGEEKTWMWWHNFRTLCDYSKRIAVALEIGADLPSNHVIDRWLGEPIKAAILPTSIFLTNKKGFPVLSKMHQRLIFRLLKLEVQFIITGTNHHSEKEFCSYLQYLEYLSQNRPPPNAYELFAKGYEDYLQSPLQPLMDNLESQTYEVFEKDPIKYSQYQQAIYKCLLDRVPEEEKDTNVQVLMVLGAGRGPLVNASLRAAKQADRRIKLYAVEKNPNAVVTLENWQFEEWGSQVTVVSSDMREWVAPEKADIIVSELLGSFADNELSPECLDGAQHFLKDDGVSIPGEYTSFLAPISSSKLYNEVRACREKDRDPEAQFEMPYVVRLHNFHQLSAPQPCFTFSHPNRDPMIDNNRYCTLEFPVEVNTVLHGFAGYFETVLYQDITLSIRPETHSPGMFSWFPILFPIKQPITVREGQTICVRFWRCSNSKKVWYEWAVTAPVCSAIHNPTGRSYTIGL
Chain of PRMT5-MTA (Q9BQA1 whole entry partner): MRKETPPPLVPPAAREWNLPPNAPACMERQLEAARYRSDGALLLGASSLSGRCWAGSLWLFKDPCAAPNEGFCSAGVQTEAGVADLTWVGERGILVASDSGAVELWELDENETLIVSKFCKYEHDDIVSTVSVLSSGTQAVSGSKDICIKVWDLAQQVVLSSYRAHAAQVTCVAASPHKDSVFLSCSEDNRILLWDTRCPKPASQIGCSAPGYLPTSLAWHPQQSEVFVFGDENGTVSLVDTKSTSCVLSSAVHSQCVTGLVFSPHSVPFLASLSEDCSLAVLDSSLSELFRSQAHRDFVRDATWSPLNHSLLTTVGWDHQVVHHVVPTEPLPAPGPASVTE
In short: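 PRMT5/[…] (1 nM) was preincubated for 30 min at room temperature with 1 µM […] and 2.5 µM SAM, then exposed to compound (10-point, 3-fold from 1000 nM) for 15 min at 23 °C. Histone H4 substrate (5 nM) was added and reacted for 45 min at 23 °C. Symmetric dimethyl-R3 H4 was detected by AlphaScreen and IC50 calculated.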

Row | SMILES | IC50 (HCT116-WT cells) [nM] | IC50 (HCT116 MTAP KO cells) [nM] | Selectivity HCT 116-WT/ HCT116 MTAP KO (HCT116 MTAP KO cells) | IC50 (PRMT5-MTA) [nM]
1 | Cc1cc2cc(C(=O)N(Cc3ccc(C4CCC4)cn3)N(C)c3ncccn3)ccc2nc1N [Example 289, 2-amino-N-((5-cyclobutylpyridin-2-yl)methyl)-N',3-dimethyl-N'-(pyrimidin-2-yl)quinoline-6-carbohydrazide] | 691 | 53 | 13.04 | 0.9
2 | Cn1ncc2c(N)nc3cc(Cl)c(C(=O)N4CC(C(F)(F)F)CN4c4ncccc4F)cc3c21 (stereo not drawn) [Example 351, (4-amino-7-chloro-1-methyl-1H-pyrazolo [4,3-c]quinolin-8-yl)(2-(3-fluoropyridin-2-yl)-4-(trifluoromethyl)pyrazolidin-1-yl) methanone] | 1840 | 85 | 21.59 | 4.9
3 | Cc1cc2cc(C(=O)N(Cc3ccc(-c4ccncc4)cn3)N(C)c3ncccc3F)ccc2nc1N [Example 178, N-([3,4'-bipyridine]-6-ylmethyl)-2-amino -N'-(3-fluoropyridin-2-yl)-N',3-dimethylq uinoline-6-carbohydrazide] | 486 | 21 | 23.14 | 1.6
4 | Cc1cc2cc(C(=O)N(Cc3ccc(C4CC4)cn3)N(C)c3ncccc3C(F)(F)F)ccc2nc1N [Example 196, 2-amino-N-((5-cyclopropylpyridin-2-yl)methyl)-N',3-dimethyl-N'-(3-(trifluoromethyl)pyridin-2-yl)quinoline-6-carbohydrazide] | 441 | 34 | 12.97 | 5.7
5 | Cc1cc2cc(C(=O)N(Cc3ccc(-c4cnc(N5CCN(C)CC5)nc4)cn3)N(C)c3ncccn3)ccc2nc1N [Example 147, 2-amino-N',3-dimethyl-N-((5-(2-(4-methylpiperazin-1-yl)pyrimidin-5-yl)pyridin-2-yl)methyl)-N'-(pyrimidin-2-yl)quinoline-6-carbohydrazide] | 1380 | 46 | 29.93 | 2.2
6 | Cc1cc2nc(N)c3cnn(C)c3c2cc1C(=O)N(C)N1CCc2cccnc21 [Example 112, 4-amino-N-(2,3-dihydro-1H-pyrrolo[2,3-b]pyridin-1-yl)-N,1,7-trimethyl-1H-pyrazolo[4,3-c]quinoline-8-carboxamide] | > 10000 | 360 | – | 1.9
7 | Cc1cc2cc(C(=O)N(Cc3ccc(C(F)(F)F)cc3F)N(C)c3ncccn3)ccc2nc1N [Example 90, 2-amino-N-(2-fluoro-4-(trifluoromethyl)benzyl)-N',3-dimethyl-N'-(pyrimidin-2-yl) quinoline-6-carbohydrazide] | 2170 | 98 | 22.13 | 4.5
8 | Cc1cc2cc(C(=O)N(Cc3ccc(C(F)(F)F)cn3)N(C)c3ncc4ccccc4n3)ccc2nc1N [Example 109, 2-amino-N',3-dimethyl-N'-(quinazolin-2-yl)-N-((5-(trifluoromethyl)pyridin-2-yl)methyl)quinoline-6-carbohydrazide] | 1070 | 74 | 14.41 | 1.2
9 | Cc1cc2nc(N)c3cnn(C)c3c2cc1C(=O)N1CC(C)CN1c1ccc(F)cc1F (stereo not drawn) [Example 381, (4-amino-1,7-dimethyl-1H-pyrazolo[4,3-c]quinolin-8-yl)(2-(2,4-difluorophenyl)-4-methylpyrazolidin-1-yl)methanone] | 2330 | 63 | 36.92 | 4
10 | COC1CN(C(=O)c2cc3c(cc2Cl)nc(N)c2cnn(C)c23)N(c2ccccc2F)C1 (stereo not drawn) [Example 437, (4-amino-7-chloro-1-methyl-1H-pyrazolo [4,3-c]quinolin-8-yl)(2-(2-fluorophenyl)-4-methoxypyrazolidin-1-yl)methanone] | 242 | 13 | 18.62 | 4.7

— patent EP4745134A1 (Jiangsu Yahong Meditech Co., Ltd., priority 2023, dated 2025)
